Assay results as given in ChEMBL document CHEMBL1201862, “PubChem BioAssay data set” (2004).
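Values below derive from 48-hour exposures of cells grown in 96-well plates, with endpoints linearly interpolated between the two concentrations bracketing the appropriate inhibition level. At the GI50, growth is halved.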 The source made the active and inactive calls. No stated cut-off is given here; in the data, active = GI50 up to about 1.1 µM and inactive = higher.

Tests used:
Experiment in all cases: NCI tumour cell line growth inhibition, 48 h
K562 = system: K562
BT-549 = system: BT-549
CAKI-1 = system: CAKI-1
UACC-62 = system: UACC-62
SK-MEL-28 = system: SK-MEL-28
U-251 = system: U-251
T47D = system: T47D
RPMI-8226 = system: RPMI-8226
HOP-92 = system: HOP-92
HL-60 = system: HL-60
CCRF-CEM = system: CCRF-CEM
UO-31 = system: UO-31
OVCAR-4 = system: OVCAR-4
COLO 205 = system: COLO 205
NCI/ADR-RES = system: NCI/ADR-RES
Hs-578T = system: Hs-578T
OVCAR-5 = system: OVCAR-5
NCI-H23 = system: NCI-H23
A549 = system: A549
PC-3 = system: PC-3

Measured: GI50

Cc1c2cnccc2c(C)c2c1c1ccccc1n2CCOC(=O)c1ccccc1
inactive: K562 9.71 µM | BT-549 33 µM | CAKI-1 6.24 µM | UACC-62 11.9 µM | SK-MEL-28 15.2 µM | U-251 15.7 µM | T47D 30 µM | RPMI-8226 8.57 µM | HOP-92 27.7 µM | HL-60 5.85 µM | CCRF-CEM 7.52 µM | UO-31 3.1 µM | OVCAR-4 16.5 µM | COLO 205 7.8 µM | NCI/ADR-RES 8.49 µM | Hs-578T 30.1 µM | OVCAR-5 14.4 µM | NCI-H23 15.7 µM | A549 10.8 µM | PC-3 28.6 µM

Cn1cnc([N+](=O)[O-])c1Sc1nnc(-c2cccnc2)n1C
inactive: K562 19.9 µM | BT-549 19 µM | CAKI-1 25.4 µM | UACC-62 17.3 µM | SK-MEL-28 17.5 µM | U-251 43.6 µM | T47D 12.6 µM | RPMI-8226 18.1 µM | HOP-92 14.5 µM | HL-60 6.55 µM | CCRF-CEM 15.5 µM | UO-31 32.4 µM | OVCAR-4 22.2 µM | COLO 205 15.3 µM | NCI/ADR-RES 46.6 µM | Hs-578T 34.7 µM | OVCAR-5 67.3 µM | NCI-H23 23.1 µM | A549 84.5 µM | PC-3 25 µM

COc1cc(-c2cc(O)c(-c3ccc4ccccc4n3)c(O)n2)cc(OC)c1OC
inactive: K562 3.31 µM | BT-549 80.4 µM | CAKI-1 > 44 µM | UACC-62 15.2 µM | SK-MEL-28 42.1 µM | U-251 22.9 µM | T47D 97.5 µM | RPMI-8226 > 50 µM | HOP-92 26.2 µM | HL-60 8.55 µM | CCRF-CEM 10.3 µM | UO-31 68.7 µM | OVCAR-4 > 38.5 µM | COLO 205 38.7 µM | NCI/ADR-RES 26.9 µM | Hs-578T 57.4 µM | OVCAR-5 > 59.6 µM | NCI-H23 46.2 µM | A549 53.7 µM | PC-3 44.3 µM

O=C1Nc2ccccc2C1(O)Cc1ccccn1 (stereo not given)
inactive: K562 > 100 µM | BT-549 > 100 µM | CAKI-1 > 100 µM | UACC-62 > 100 µM | SK-MEL-28 > 100 µM | U-251 > 100 µM | T47D > 100 µM | RPMI-8226 > 100 µM | HOP-92 > 100 µM | HL-60 > 100 µM | CCRF-CEM > 100 µM | UO-31 > 100 µM | OVCAR-4 > 100 µM | COLO 205 > 100 µM | NCI/ADR-RES > 100 µM | Hs-578T > 100 µM | OVCAR-5 > 100 µM | NCI-H23 > 100 µM | A549 > 100 µM | PC-3 > 100 µM

COc1ccc([C@H]2C=C(c3cc(F)c(Cl)cc3Cl)NC(=S)N2)cc1
inactive: K562 15.2 µM | BT-549 32.7 µM | CAKI-1 29.4 µM | UACC-62 28.3 µM | SK-MEL-28 47 µM | U-251 26.7 µM | T47D 18.7 µM | RPMI-8226 21.7 µM | HOP-92 24 µM | HL-60 11.3 µM | CCRF-CEM 30.2 µM | UO-31 36.6 µM | OVCAR-4 28.3 µM | COLO 205 19.1 µM | NCI/ADR-RES 25.7 µM | Hs-578T 79.1 µM | OVCAR-5 43.1 µM | NCI-H23 37.5 µM | A549 35.3 µM | PC-3 19.9 µM

COc1ccc(/C=C(/c2ccc(OC)cc2)c2c(Cl)cc(Cl)c(/C(=C\c3ccc(OC)cc3)c3ccc(OC)cc3)c2/N=N/c2ccccc2)cc1
inactive: K562 45.1 µM | BT-549 > 100 µM | CAKI-1 > 100 µM | UACC-62 > 100 µM | SK-MEL-28 > 100 µM | U-251 66.4 µM | T47D > 100 µM | RPMI-8226 > 100 µM | HOP-92 > 100 µM | HL-60 > 100 µM | CCRF-CEM 50.1 µM | UO-31 > 100 µM | OVCAR-4 > 100 µM | COLO 205 > 100 µM | NCI/ADR-RES > 100 µM | Hs-578T > 100 µM | OVCAR-5 > 100 µM | NCI-H23 > 100 µM | A549 > 100 µM | PC-3 > 100 µM
